Data taken from patent US20170307595A1, “METHODS AND DEVICES TO STUDY METABOLISM” (The General Hospital Corporation, priority 2014, published 2017).

What was measured:
[1] = test system: rat primary hepatocytes; experiment: Mass spectrometry of drug metabolism in single chamber device with hepatocytes alone; conditions: from tegafur+uracil
Description: (§2) Tegafur, 5-FU, and Uracil concentrations in media were quantified using an LC/MS-MS 3200 QTRAP Hybrid Triple Quadrupole Linear Ion Trap mass spectrometer (AB SCIEX, Foster City, Calif.) coupled to a 1200 Series Binary LC System (Agilent Technologies, Santa Clara, Calif.). A standard solution of each analyte was directly infused into the mass spectrometer, which was operating under negative mode with the following settings: Curtain gas (CUR) at 30.0, collision gas (CAD) at 5, IonSpray Voltage (IS) at −4500.0, the temperature (TEM) of the turbo gas in the TurbolonSpray at 400° C. and both Ion Source Gases (GS1 and GS2) at 60.0. Using Analyst software (Version 1.5, AB Sciex), a ‘Compound Optimization’ routine was performed to identify multiple reaction monitoring (MRM) precursor/product ion transition pairs for each analyte that maximizes peak intensity. The tunable MS-specific parameters for the optimization were the declustering potential (DP), the entrance potential (EP), the collision energy (CE), as well as the collision cell exit potential (CXP).
(§3) MS data acquisition for each sample was achieved by injecting 10 μL, of media through a liquid chromatographic (LC) separation phase followed by simultaneous detection of all three MRM transitions, each with a dwell time of 500 ms. The LC method utilized a Synergy Hydro-RP (reverse phase) column (150 mm×2 mm inner 4 μm 80 Å particles; Phenomenex, Torrance, Calif.), which was kept at ambient temperature. The aqueous mobile phase A was HPLC grade water with 0.1% formic acid and the organic phase B was HPLC grade methanol with 0.1% formic acid. The elution gradient was set as: 0 minutes-3% B, 3 minutes-3% B, 12 minutes-95% B, 15 minutes-95% B, 18 minutes-3% B, and 25 minutes-3% B.

[2] = cited from earlier work; for Cmax: oral uptake of tegafur-uracil (UFT)
[3] = test system: Rat hepatocytes; experiment: MTT toxicity experiment in 96-well plates, rat hepatocytes; format: cell-based
Method: (§1) Toxicity experiments were performed in 96-well plates. Briefly, 96-well plates were coated with 50 μg/mL fibronectin for 1 hour at 37° C. Freshly isolated rat hepatocytes and MCF-7 cells were seeded at 50,000 cells/well in 100 μL of media and incubated overnight at 37° C., 10% CO2. Hepatocytes were seeded in hepatocyte maintenance media while MCF-7 cells were seeded in DMEM. Media was replaced and cells were exposed to tegafur or 5-FU+Uracil in Williams E media at 37° C., 10% CO2. Uracil concentration was maintained at 100 μM, while 5-FU concentration varied. After 24 hours of exposure, media were removed and cells were incubated with 0.5 mg/mL MTT reagent for 2 hours. Media were removed from the wells and 100 μL DMSO was added to each well and mixed on a shaker for 10 minutes. The absorbance was measured at 570 nm and IC-50 values were obtained using Sigmaplot software with a sigmoidal 4-parameter fit.

[4] = test system: rat primary hepatocytes; conditions: 24 h, 100 μM
Description: as §2, §3

[5] = test system: MCF-7 cells; experiment: MTT toxicity experiment in 96-well plates, MCF-7; format: cell-based, human
Method: as §1

[6] = test system: MCF-7 cells co-cultured with rat primary hepatocytes; experiment: LDH release, hepatocyte/MCF-7 co-culture in two-chamber microfluidic device; format: cell-based, human; conditions: MCF-7 exposure to 5-FU produced by metabolic conversion of tegafur, 24 hours
Description: Rat primary hepatocytes and human breast cancer cells (MCF-7) were co-cultured in the device of Example 1 to create a hepatocyte-cancer model for drug screening. In the two-chamber device, intercellular communication between hepatocytes and cancer cells is achieved without any flow within the devices. In the two-chamber device, both cell types were independently seeded into their respective chambers in the device using inlet ports on fibronectin-coated devices. Rat primary hepatocytes and MCF-7 cells were seeded into the first (bottom) and second (top) chambers, respectively. Control monocultures were seeded in a single chamber device. The co-culture model created provides a microenvironment with cells cultured in close proximity and relatively small volume. Co-culture of hepatocytes and MCF-7 cells was compared in 12-well plates against a two-chamber device. […]
LDH in the supernatant was evaluated using CytoTox 96 Non-Radioactive Cytotoxicity Assay (Promega Cat No. G1780). […]
At the end of incubation, 50 μL stop solution was added and absorbance measured at 490 nm.
LDH from culture supernatant is normalized as LDH from cultures exposed to 100 μM tegafur+100 μM uracil to LDH from cultures exposed to vehicle control. […] Percentage cell death was calculated as LDH in media/LDH in 10,000 MCF-7 cells.

[7] = 100 μM, inferred from IC-50 values

Compound | temporal profile of 5-FU production [1] | half-life in circulation in the human body [2] [min] | fraction of 5-FU produced cleared by DPD activity ([2]; human) [%] | Cmax ([2]; human) [µM] | toxicity to hepatocytes at 100 μM [3, 7] | IC50 ([3]; Hepatocyte, rat hepatocytes, 24 hours exposure, MTT, uracil 100 μM where present) [µM] | decrease of concentration within the media [4] [%] | toxicity to MCF-7 cells at 100 μM [5, 7] | IC50 ([5]; Homo sapiens, MCF7, MCF-7, 24 hours exposure, MTT, uracil 100 μM where present) [µM] | MCF-7 cell death (LDH in media/LDH in 10,000 MCF-7 cells) [6] [%]
O=c1[nH]cc(F)c(=O)[nH]1 [5-FU, 5-fluorouracil] | increase in production up to 8 hours and a subsequent decrease | 30 | ~80 | 0.847 |  |  |  |  |  | 
O=c1[nH]c(=O)n(C2CCCO2)cc1F (stereo not drawn) [Tegafur] |  |  |  | 31.2 | not toxic | > 1200 | ~75 | not toxic | 340 | 12.4±1.6
O=c1cc[nH]c(=O)[nH]1 [uracil, Uracil] |  |  |  |  |  |  | ~75 |  |  | 
